For data set [1], the target named is T1, CYP3A4 (Homo sapiens, UniProt P08684). Here is the method: (§1) Measurement of the activity of all four CYPs was conducted using the P450-Glo™ assay (Promega, Japan), according to the manufacturer’s instructions. Briefly, cells were seeded in a 96-well plate at a density of 1×10^4 cells/well. Twenty-four hours later, test compounds and the luminescent substrate included in the kit were added into the culture media. Following 1 hour of incubation, the detection reagent was added, and the luminescence generated by the metabolic substrate within the culture media was measured using an Infinite F500 plate reader ([…]).
(§2) Curve fitting was performed using the SigmaPlot 13.0 statistical software (Systat Software, IL, USA). […] Data were presented as means ± S.D. Statistical analyses were carried out using unpaired Student’s t test. The level of statistical significance was set at P< 0.05.
(§3) Twenty compounds that are known to inhibit CYPs were used to calculate IC50 values in TC-HepG2 cells, which were then compared to those in primary human hepatocytes.
(§4) Briefly, CYP inhibitors were added to the culture media at the same time as the metabolic substrate to test direct inhibition (DI) or 1 hour prior to the addition of the metabolic substrate to test time-dependent inhibition (TDI).
Target sequence in this assay (P08684 2-503): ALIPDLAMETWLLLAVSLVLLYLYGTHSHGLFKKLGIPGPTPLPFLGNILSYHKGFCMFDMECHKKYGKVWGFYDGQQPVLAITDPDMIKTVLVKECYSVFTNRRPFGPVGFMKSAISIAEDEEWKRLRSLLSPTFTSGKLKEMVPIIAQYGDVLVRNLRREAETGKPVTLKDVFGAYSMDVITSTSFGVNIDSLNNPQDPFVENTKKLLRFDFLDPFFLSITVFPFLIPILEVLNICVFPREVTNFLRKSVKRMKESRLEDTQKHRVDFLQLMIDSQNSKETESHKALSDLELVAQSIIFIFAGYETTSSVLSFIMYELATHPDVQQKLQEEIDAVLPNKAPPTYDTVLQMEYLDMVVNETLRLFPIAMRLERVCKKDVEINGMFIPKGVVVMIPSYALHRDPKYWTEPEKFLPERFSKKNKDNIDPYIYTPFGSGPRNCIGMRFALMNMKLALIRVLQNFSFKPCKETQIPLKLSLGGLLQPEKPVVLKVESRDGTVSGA

Data set [2] concerns the target T2, CYP2D6 (Homo sapiens, UniProt P10635). The experiment in a line: cell-based. Here is the method:
as §1, §2, §3, §4

Data set [3] has as its target T1, CYP3A4. In words: in vitro. Here is the method:
as §1
Fig 6G–6I show the plots to determine the rate of inactivation (kobs) for the three inhibitors as depicted in Fig 6A–6F.
Macrolides (0–100 μM/L) were preincubated at 37°C for 0–30 min, and the reaction was initiated by the addition of CYP3A-specific substrate for 30 min. (G—I) Apparent inactivation rate (kobs) was estimated graphically from the slope of the plot for the natural log enzyme activity remaining after preincubation against preincubation time and was corrected for any loss of activity in the absence of the inhibitor. kinact and Ki,app values were obtained from a double reciprocal plot of kobs against inhibitor concentration. Closed circles represent TC-HepG2 cells, and opened circles represent parental HepG2 cells. Each symbol represents the average of triplicate determinations.

Another data set deals with CYP2C9 (Homo sapiens, UniProt P11712). The settings on record: TC-HepG2 cells, Fig 5. Here is the method:
as §1, §2, §3, §4

The target in data set [4] is T3, CYP2C19 (Homo sapiens, UniProt P33261). The experiment in a line: cell-based. Here is the method: as §1, §2, §3, §4
The target in data set [5] is T3, CYP2C19. The experiment in a line: cell-based. It counts as in vitro ADME. Further details: endogenous in cells; host or cells: primary human hepatocytes. The settings on record: primary human hepatocytes; mean ± S.D. of triplicate.
Data set [6] deals with T2, CYP2D6. In words: cell-based. It counts as in vitro ADME. Further details: endogenous in cells; host or cells: primary human hepatocytes. The settings on record: primary human hepatocytes; mean ± S.D. of triplicate.

Read-outs that look alike come from different tables or passages of the source.

The record followed here is article PMC5655360, “Establishment of a novel hepatocyte model that expresses four cytochrome P450 genes stably via mammalian-derived artificial chromosome for pharmacokinetics and toxicity studies” (PLoS ONE, 2017).

Broadly, the kinact is the rate constant of inactivation at saturating inhibitor. As a reminder, the IC50 is the concentration at which inhibition is half-maximal. A low value points to greater potency in that assay.

T2 sequence (P10635 whole entry): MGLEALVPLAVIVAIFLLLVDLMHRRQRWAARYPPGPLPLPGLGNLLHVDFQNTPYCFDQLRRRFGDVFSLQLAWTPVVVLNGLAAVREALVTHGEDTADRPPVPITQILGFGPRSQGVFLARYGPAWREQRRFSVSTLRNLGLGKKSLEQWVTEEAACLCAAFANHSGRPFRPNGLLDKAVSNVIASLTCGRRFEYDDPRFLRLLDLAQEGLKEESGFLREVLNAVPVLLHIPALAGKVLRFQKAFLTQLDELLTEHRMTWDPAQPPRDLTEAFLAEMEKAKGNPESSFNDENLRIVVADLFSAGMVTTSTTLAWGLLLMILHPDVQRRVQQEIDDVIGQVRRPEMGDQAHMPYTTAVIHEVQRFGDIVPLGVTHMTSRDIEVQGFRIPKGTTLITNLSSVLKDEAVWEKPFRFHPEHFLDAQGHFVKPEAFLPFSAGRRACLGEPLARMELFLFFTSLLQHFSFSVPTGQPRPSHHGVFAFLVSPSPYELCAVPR
T3 sequence (P33261 whole entry): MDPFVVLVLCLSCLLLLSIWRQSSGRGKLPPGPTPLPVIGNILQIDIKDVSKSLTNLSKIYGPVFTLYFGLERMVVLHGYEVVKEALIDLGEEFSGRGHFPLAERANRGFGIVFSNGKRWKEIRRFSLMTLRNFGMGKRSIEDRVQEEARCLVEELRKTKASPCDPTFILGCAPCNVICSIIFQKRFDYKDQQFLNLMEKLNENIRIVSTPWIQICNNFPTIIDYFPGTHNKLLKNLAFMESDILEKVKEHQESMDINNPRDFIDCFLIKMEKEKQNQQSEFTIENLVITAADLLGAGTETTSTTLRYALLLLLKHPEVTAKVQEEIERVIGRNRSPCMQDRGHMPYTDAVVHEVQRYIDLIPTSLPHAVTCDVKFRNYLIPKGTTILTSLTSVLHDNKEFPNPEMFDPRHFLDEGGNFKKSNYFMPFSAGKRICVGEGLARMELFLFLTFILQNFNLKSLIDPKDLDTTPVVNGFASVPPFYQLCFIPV
CYP2C9, sequence (P11712 whole entry): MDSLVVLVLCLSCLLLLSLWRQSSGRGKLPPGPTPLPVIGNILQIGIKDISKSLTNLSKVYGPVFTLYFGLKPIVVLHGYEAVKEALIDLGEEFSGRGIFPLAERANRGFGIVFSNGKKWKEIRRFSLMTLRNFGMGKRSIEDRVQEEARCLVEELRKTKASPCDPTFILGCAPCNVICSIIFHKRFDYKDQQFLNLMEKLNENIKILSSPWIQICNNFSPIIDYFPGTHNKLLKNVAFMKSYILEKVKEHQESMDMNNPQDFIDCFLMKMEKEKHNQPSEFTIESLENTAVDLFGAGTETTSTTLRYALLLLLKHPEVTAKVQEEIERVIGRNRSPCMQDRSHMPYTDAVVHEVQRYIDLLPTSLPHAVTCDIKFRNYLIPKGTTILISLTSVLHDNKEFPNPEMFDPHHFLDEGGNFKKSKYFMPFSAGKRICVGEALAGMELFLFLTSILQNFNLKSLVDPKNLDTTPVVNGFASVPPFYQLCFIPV

Take `C#C[C@]1(O)CC[C@H]2[C@@H]3CCc4cc(O)ccc4[C@H]3CC[C@@]21C` [Ethinylestradiol]: on CYP3A4 [1] (TC-HepG2 cells, Fig 5), the “inhibitory effect with 1 hour preincubation (TDI) compared with simultaneous addition of inhibitor and substrate (DI), CYP3A4” value is reported as “higher”.
As for aflatoxin B1, in the data set on TC-HepG2 cells, the “IC50 in TC-HepG2 cells compared with HepG2 cells” value is reported as “lower”. Further, the “toxicity in parental HepG2 cells lacking CYPs” value with HepG2 cells is recorded as “neither compound was toxic”.
On to `Fc1ccc([C@@H]2CCNC[C@H]2COc2ccc3c(c2)OCO3)cc1` [Paroxetine], for which the “inhibitory effect with 1 hour preincubation (TDI) compared with simultaneous addition of inhibitor and substrate (DI), CYP2D6” value against CYP2D6 [2] is reported as “higher”.
With `CC[C@H]1OC(=O)[C@H](C)[C@@H](O[C@H]2C[C@@](C)(OC)[C@@H](O)[C@H](C)O2)[C@H](C)[C@@H](O[C@@H]2O[C@H](C)C[C@H](N(C)C)[C@H]2O)[C@](C)(OC)C[C@@H](C)C(=O)[C@H](C)[C@@H](O)[C@]1(C)O` [Clarithromycin], the “inhibitory effect with 1 hour preincubation (TDI) compared with simultaneous addition of inhibitor and substrate (DI), CYP3A4” value on CYP3A4 [1] (TC-HepG2 cells, Fig 5) is on record as “higher”. In addition, the “inhibitory effect on CYP3A4 metabolic activity” value against CYP3A4 [1] (three TC-HepG2 clones (Fig 3C)) is given as “concentration-dependent inhibitory effect”. In addition, the “suppression of the generation of metabolites of the luminescent CYP3A4 substrate” value at CYP3A4 [3] (0-100 μM added 10, 20 or 30 min before substrate (Fig 6)) is “time- and concentration-dependent manner”. Besides, the values for the KI (inactivation) at CYP3A4 [3] (hepatocytes) and at CYP3A4 [3] (human) were 16 ± 4.3 µM and 3.76 ± 0.42 µM, respectively.
As for `COc1cc2c(c3oc4cccc(O)c4c(=O)c13)[C@@H]1C=CO[C@@H]1O2` [sterigmatocystin], in the data set with TC-HepG2 cells, the “cell survival rate in TC-HepG2 cells compared with parental HepG2 cells” value is “significantly lower” and the “survival of TC-HepG2 cells” value is recorded as “concentration-dependent decrease”. For the same molecule, in the data set on HepG2 cells, the “toxicity in parental HepG2 cells lacking CYPs” value is reported as “neither compound was toxic”.
As for `CC[C@H]1OC(=O)[C@H](C)[C@@H](O[C@H]2C[C@@](C)(OC)[C@@H](O)[C@H](C)O2)[C@H](C)[C@@H](O[C@@H]2O[C@H](C)C[C@H](N(C)C)[C@H]2O)[C@](C)(O)C[C@@H](C)/C(=N\OCOCCOC)[C@H](C)[C@@H](O)[C@]1(C)O` [Roxithromycin], the “inhibitory effect with 1 hour preincubation (TDI) compared with simultaneous addition of inhibitor and substrate (DI), CYP3A4” value against CYP3A4 [1] is “higher”. On CYP3A4 [3], the “suppression of the generation of metabolites of the luminescent CYP3A4 substrate” value is “time- and concentration-dependent manner”. Besides, at CYP3A4 [3] (hepatocytes), the KI (inactivation) is 13.1 ± 4.7 µM and the kinact was 0.000161 s⁻¹. For the same molecule, at CYP3A4 [3] (human), the KI (inactivation) was 4.6 ± 0.6 µM and the kinact is 0.000431 s⁻¹.
On to `O=C(O)COc1ccc(C(=O)c2cccs2)c(Cl)c1Cl` [Tienilic acid], for which, on CYP2C9, the “inhibitory effect with 1 hour preincubation (TDI) compared with simultaneous addition of inhibitor and substrate (DI), CYP2C9” value was “higher”. Moreover, the IC50 was 5.7 ± 1.7 µM at CYP2C19 [4] and 0.55 ± 0.02 µM on CYP2C19 [5].
Turning to `CN(C/C=C/C#CC(C)(C)C)Cc1cccc2ccccc12` [Terbinafine], the 50% inhibitory concentration (IC50) is 0.0021 ± 0.0002 µM against CYP2D6 [2] and 0.0099 ± 0.0002 µM at CYP2D6 [6].
